Measurements as given in patent publication US9914730B2, “Azaquinazoline inhibitors of Atypical protein Kinase C” (Ignyta, Inc., priority 2012, dated 2018).

target: T1, full-length human PKCι (Homo sapiens, UniProt P41743); assay: PKCι IC50 IMAP assay, full-length PKCι at 150 μM ATP; assay type: biochemical; details: read-out: IC50 in IMAP assay against full length PKCi at 150 μM ATP
T1 construct: Recombinant, full-length human PKCι expressed in Sf21 insect cells is also commercially available; purchased; host or cells: Sf21 insect cells
T1 sequence (P41743 1-596): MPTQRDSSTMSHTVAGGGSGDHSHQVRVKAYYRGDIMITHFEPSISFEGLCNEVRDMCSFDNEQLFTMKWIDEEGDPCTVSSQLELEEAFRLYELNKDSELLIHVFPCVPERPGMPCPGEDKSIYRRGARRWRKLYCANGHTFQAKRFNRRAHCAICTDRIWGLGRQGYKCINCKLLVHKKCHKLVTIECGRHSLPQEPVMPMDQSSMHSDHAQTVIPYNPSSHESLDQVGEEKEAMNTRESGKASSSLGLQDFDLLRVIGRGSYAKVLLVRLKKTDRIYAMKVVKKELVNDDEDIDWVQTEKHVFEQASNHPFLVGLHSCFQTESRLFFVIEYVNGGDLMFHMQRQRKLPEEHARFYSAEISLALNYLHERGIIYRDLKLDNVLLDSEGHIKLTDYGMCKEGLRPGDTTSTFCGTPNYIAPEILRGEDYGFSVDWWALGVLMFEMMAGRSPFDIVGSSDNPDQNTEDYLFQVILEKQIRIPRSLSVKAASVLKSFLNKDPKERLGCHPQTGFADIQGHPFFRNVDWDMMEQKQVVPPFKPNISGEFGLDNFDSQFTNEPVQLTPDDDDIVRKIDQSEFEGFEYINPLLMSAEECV
In short: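 Recombinant full-length human PKCι (Sf21-expressed, typically 15 pM) phosphorylated 100 nM 5FAM-labelled PKCε pseudosubstrate-derived peptide with 150 μM ATP (5× KM^APP) in 18 mM tris-HCl pH7.5, 9 mM MgCl2, EGTA, DTT, 4% DMSO. After 60 min at room temperature, IMAP binding reagent was added for 2 h and fluorescence polarisation read.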

Compound | IC50
COc1cncc2nc(-c3ccncc3)nc(N3CCC(N)(C(=O)N[C@@H](CCO)c4ccc(Cl)cc4)CC3)c12 [Example 154, 4-Amino-1-(5-methoxy-2-pyridin-4-yl-pyrido[3,4-d]pyrimidin-4-yl)-piperidine-4-carboxylic acid [(S)-1-(4-chloro-phenyl)-3-hydroxy-propyl]-amide] | 100 to 1000 nM
COC(=O)C1CN(c2nc(-c3ccncc3)nc3cncc(OC)c23)CCN1 (stereo not drawn) [Example 155, 4-(5-Methoxy-2-pyridin-4-yl-pyrido[3,4-d]pyrimidin-4-yl)-piperazine-2-carboxylic acid methyl ester] | 1000 to 10000 nM
COc1cncc2nc(-c3ccncc3)nc(N3CCNC(C(=O)Nc4ccccc4)C3)c12 (stereo not drawn) [Example 156, 4-(5-Methoxy-2-pyridin-4-yl-pyrido[3,4-d]pyrimidin-4-yl)-piperazine-2-carboxylic acid phenylamide] | 1000 to 10000 nM
COc1cncc2nc(-c3ccncc3)nc(N3CCNC(C(=O)NCc4ccccc4)C3)c12 (stereo not drawn) [Example 157, 4-(5-Methoxy-2-pyridin-4-yl-pyrido[3,4-d]pyrimidin-4-yl)-piperazine-2-carboxylic acid benzylamide] | 1000 to 10000 nM
COc1cncc2nc(-c3ccncc3)nc(N3CCNC(C(=O)NCCc4ccccc4)C3)c12 (stereo not drawn) [Example 158, 4-(5-Methoxy-2-pyridin-4-yl-pyrido[3,4-d]pyrimidin-4-yl)-piperazine-2-carboxylic acid phenethyl-amide] | 1000 to 10000 nM
CCCc1nccc2c(N3CCNCC3)nc(-c3ccncc3)nc12 [Example 159, 4-piperazin-1-yl-8-propyl-2-pyridin-4-yl-pyrido[3,4-d]pyrimidine] | 10000 to 40000 nM
Cc1nccc2c(N3CCNCC3)nc(-c3ccncc3)nc12 [Example 160, 8-Methyl-4-piperazin-1-yl-2-pyridin-4-yl-pyrido[3,4-d]pyrimidine] | 10000 to 40000 nM
COc1cncc2nc(-c3ccnc(Nc4cccc(C#N)c4)c3)nc(N3CCNCC3)c12 [Example 205, 3-[4-(5-Methoxy-4-piperazin-1-yl-pyrido[3,4-d]pyrimidin-2-yl)-pyridin-2-ylamino]-benzonitrile] | 100 to 1000 nM
COc1cncc2nc(-c3ccnc(Nc4ccc(C(F)(F)F)cc4)c3)nc(N3CCNCC3)c12 [Example 207, [4-(5-Methoxy-4-piperazin-1-yl-pyrido[3,4-d]pyrimidin-2-yl)-pyridin-2-yl]-(4-trifluoromethyl-phenyl)-amine] | 100 to 1000 nM
COc1cncc2nc(-c3ccnc(NC(=O)CN4CCOCC4)c3)nc(N3CCNCC3)c12 [Example 209, N-[4-(5-Methoxy-4-piperazin-1-yl-pyrido[3,4-d]pyrimidin-2-yl)-pyridin-2-yl]-2-morpholin-4-yl-acetamide] | 100 to 1000 nM
COc1cncc2nc(-c3ccnc(NC(=O)CN4CCCCC4)c3)nc(N3CCNCC3)c12 [Example 210, N-[4-(5-Methoxy-4-piperazin-1-yl-pyrido[3,4-d]pyrimidin-2-yl)-pyridin-2-yl]-2-piperidin-1-yl-acetamide] | 100 to 1000 nM
CNc1cc(-c2nc(N3CCNCC3)c3c(OC)cncc3n2)ccn1 [Example 213, [4-(5-Methoxy-4-piperazin-1-yl-pyrido[3,4-d]pyrimidin-2-yl)-pyridin-2-yl]-methyl-amine] | 100 to 1000 nM
COc1cncc2nc(-c3ccnc(NC(C)=O)c3)nc(N3CCC(O)CC3)c12 [Example 215, N-{4-[4-(4-Hydroxy-piperidin-1-yl)-5-methoxy-pyrido[3,4-d]pyrimidin-2-yl]-pyridin-2-yl}-acetamide] | 100 to 1000 nM
COc1cncc2nc(-c3ccnc(NC(=O)C(C)(C)C)c3)nc(N3CCNCC3)c12 [Example 217, N-[4-(5-Methoxy-4-piperazin-1-yl-pyrido[3,4-d]pyrimidin-2-yl)-pyridin-2-yl]-2,2-dimethyl-propionamide] | 100 to 1000 nM
COc1cncc2nc(-c3ccnc(Nc4nccs4)c3)nc(N3CCNCC3)c12 [Example 219, [4-(5-Methoxy-4-piperazin-1-yl-pyrido[3,4-d]pyrimidin-2-yl)-pyridin-2-yl]-thiazol-2-yl-amine] | 100 to 1000 nM
COc1cncc2nc(-c3ccnc(Nc4ccccc4)c3)nc(N3CCC(C)(O)CC3)c12 [Example 223, 1-[5-Mcthoxy-2-(2-phenylamino-pyridin-4-yl)-pyrido[3,4-d]pyrimidin-4-yl]-4-methyl-piperidin-4-ol] | 1000 to 10000 nM
COc1cncc2nc(-c3ccnc(Nc4ccccc4)c3)nc(N3CCN[C@@H](C(C)C)C3)c12 [Example 224, {4-[4-((S)-3-Isopropyl-piperazin-1-yl)-5-methoxy-pyrido[3,4-d]pyrimidin-2-yl]-pyridin-2-yl}-phenyl-amine] | < 100 nM
COc1cncc2nc(-c3ccnc(Nc4ccccc4)c3)nc(N3CCN[C@@H](CCO)C3)c12 [Example 225, 2-{(S)-4-[5-Methoxy-2-(2-phenylamino-pyridin-4-yl)-pyrido[3,4-d]pyrimidin-4-yl]-piperazin-2-yl}-ethanol] | 100 to 1000 nM

Other lines, results leading:

IC50 | Compound
< 100 nM | COc1cncc2nc(-c3ccnc(Nc4ccccc4)c3)nc(N3CCNCC3)c12 [Example 200, [4-(5-Methoxy-4-piperazin-1-yl-pyrido[3,4-d]pyrimidin-2-yl)-pyridin-2-yl]-phenyl-amine]
< 100 nM | COc1cncc2nc(-c3ccnc(Nc4cnccn4)c3)nc(N3CCNCC3)c12 [Example 201, [4-(5-Methoxy-4-piperazin-1-yl-pyrido[3,4-d]pyrimidin-2-yl)-pyridin-2-yl]-pyrazin-2-yl-amine]
< 100 nM | COc1cncc2nc(-c3ccnc(Nc4nc(C(F)(F)F)co4)c3)nc(N3CCNCC3)c12 [Example 202, [4-(5-Methoxy-4-piperazin-1-yl-pyrido[3,4-d]pyrimidin-2-yl)-pyridin-2-yl]-(4-trifluoromethyl-oxazol-2-yl)-amine]
< 100 nM | COc1cncc2nc(-c3ccnc(Nc4nc(C)c(C)o4)c3)nc(N3CCNCC3)c12 [Example 203, (4,5-Dimethyl-oxazol-2-yl)-[4-(5-methoxy-4-piperazin-1-yl-pyrido[3,4-d]pyrimidin-2-yl)-pyridin-2-yl]-amine]
< 100 nM | COc1cncc2nc(-c3ccnc(Nc4nc(C5CC5)cs4)c3)nc(N3CCNCC3)c12 [Example 204, (4-Cyclo-propyl-thiazol-2-yl)-[4-(5-methoxy-4-piperazin-1-yl-pyrido[3,4-d]pyrimidin-2-yl)-pyridin-2-yl]-amine]
< 100 nM | COc1cncc2nc(-c3ccnc(Nc4ccccc4F)c3)nc(N3CCNCC3)c12 [Example 206, (2-Fluoro-phenyl)-[4-(5-methoxy-4-piperazin-1-yl-pyrido[3,4-d]pyrimidin-2-yl)-pyridin-2-yl]-amine]
< 100 nM | COc1cncc2nc(-c3ccnc(N)c3)nc(N3CCNCC3)c12 [Example 208, 4-(5-Methoxy-4-piperazin-1-yl-pyrido[3,4-d]pyrimidin-2-yl)-pyridin-2-ylamine]
< 100 nM | COc1cncc2nc(-c3ccnc(Nc4ccncn4)c3)nc(N3CCNCC3)c12 [Example 211, [4-(5-Methoxy-4-piperazin-1-yl-pyrido[3,4-d]pyrimidin-2-yl)-pyridin-2-yl]-pyrimidin-4-yl-amine]
< 100 nM | COc1cncc2nc(-c3ccnc(NC(=O)c4ccccc4)c3)nc(N3CCNCC3)c12 [Example 212, N-[4-(5-Methoxy-4-piperazin-1-yl-pyrido[3,4-d]pyrimidin-2-yl)-pyridin-2-yl]-benzamide]
< 100 nM | COc1cncc2nc(-c3ccnc(NC(C)=O)c3)nc(N3CCNCC3)c12 [Example 214, N-[4-(5-Methoxy-4-piperazin-1-yl-pyrido[3,4-d]pyrimidin-2-yl)-pyridin-2-yl]-acetamide]
< 100 nM | COc1cncc2nc(-c3ccnc(NC(=O)C4CC4)c3)nc(N3CCNCC3)c12 [Example 216, Cyclo-propane-carboxylic acid[4-(5-methoxy-4-piperazin-1-yl-pyrido[3,4-d]pyrimidin-2-yl)-pyridin-2-yl]-amide]
< 100 nM | COc1cncc2nc(-c3ccnc(NC(=O)C4CCOCC4)c3)nc(N3CCNCC3)c12 [Example 218, Tetrahydro-pyran-4-carboxylic acid[4-(5-methoxy-4-piperazin-1-yl-pyrido[3,4 d]pyrimidin-2-yl)-pyridin-2-yl]-amide]
< 100 nM | COc1cncc2nc(-c3ccnc(Nc4ncco4)c3)nc(N3CCNCC3)c12 [Example 220, [4-(5-Methoxy-4-piperazin-1-yl-pyrido[3,4-d]pyrimidin-2-yl)-pyridin-2-yl]-oxazol-2-yl-amine]
< 100 nM | COc1cncc2nc(-c3ccnc(Nc4nc(C)co4)c3)nc(N3CCNCC3)c12 [Example 221, [4-(5-Methoxy-4-piperazin-1-yl-pyrido[3,4-d]pyrimidin-2-yl)-pyridin-2-yl]-(4-methyl-oxazol-2-yl)-amine]
< 100 nM | COc1cncc2nc(-c3ccnc(Nc4ccccc4)c3)nc(N3CCN[C@H](CO)C3)c12 [Example 222, {(S)-4-[5-Methoxy-2-(2-phenylamino-pyridin-4-yl)-pyrido[3,4-d]pyrimidin-4-yl]-piperazin-2-yl}-methanol]
